# Measurements: patent publication US8076487B2, “Pyridone derivative and herbicide” (Kumiai Chemical Industry Co., Ltd., priority 2006, dated 2011)
# How the values were obtained:
# Format in all cases: in vivo
# [1] = system: Japanese bulrush (Scirpus juncoides Roxb.); test: Test Example 1: herbicidal effect by soil application to paddy field; settings: paddy field soil application; active ingredient 1,000 g per 1 hectare; wettable powder added dropwise to water surface the day after sowing; examined on the 21st day after application
# Method in brief: (§1)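 Under greenhouse conditions, seeds sown on puddled paddy soil in 100 cm2 pots under 3 cm of standing water received the test compound; injury was assessed with a standard scoring scheme three weeks (day 21) after treatment.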
# [2] = system: early watergrass (Echinochloa oryzicola Vasing); test: as above; settings: paddy field soil application; active ingredient 1,000 g per 1 hectare; wettable powder added dropwise to water surface the day after sowing; examined on the 21st day after application
# Method in brief: as §1
# [3] = system: heartshape false pickerelweed (Monochoria vaginalis (Burm.f.) C.Presl); test: as above; settings: paddy field soil application; active ingredient 1,000 g per 1 hectare; wettable powder added dropwise to water surface the day after sowing; examined on the 21st day after application
# Method in brief: as §1
# [4] = system: barnyardgrass (Echinochloa crus-galli (L.) P. Beauv. var. crus-galli); test: Test Example 2: herbicidal effect by soil application to upland field; settings: soil surface spray, upland field soil, 1,000 g active ingredient per hectare, 21st day after application
# Method in brief: (§2)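 Scoring on a standard scale took place 21 days after application, with plants kept in a greenhouse. Active ingredient (1,000 g/ha, as diluted wettable powder, 1,000 L/ha) was sprayed evenly onto soil directly after sowing and covering seeds.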
# [5] = system: green foxtail (Setaria viridis (L.) P. Beauv.); test: as above; settings: soil surface spray, upland field soil, 1,000 g active ingredient per hectare, 21st day after application
# Method in brief: as §2
# [6] = system: slender amaranth (Amaranthus viridis L.); test: as above; settings: soil surface spray, upland field soil, 1,000 g active ingredient per hectare, 21st day after application
# Method in brief: as §2
# [7] = system: velvetleaf (Abutilon theophrasti medicus); test: as above; settings: soil surface spray, upland field soil, 1,000 g active ingredient per hectare, 21st day after application
# Method in brief: as §2
# [8] = system: barnyardgrass (Echinochloa crus-galli (L.) P. Beauv. var. crus-galli); test: Test Example 3: herbicidal effect by application to upland field (foliage treatment); settings: foliage treatment, plants grown two weeks, 1,000 g active ingredient per hectare, 14th day after application
# Method in brief: (§3)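 Dose 1,000 g active ingredient/ha, sprayed as diluted wettable powder over entire plants two weeks after sowing in field soil. Kept in greenhouse; herbicidal effect graded on a standard scale on day 14.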
# [9] = system: green foxtail (Setaria viridis (L.) P. Beauv.); test: as above; settings: foliage treatment, plants grown two weeks, 1,000 g active ingredient per hectare, 14th day after application
# Method in brief: as §3
# [10] = system: slender amaranth (Amaranthus viridis L.); test: as above; settings: foliage treatment, plants grown two weeks, 1,000 g active ingredient per hectare, 14th day after application
# Method in brief: as §3
# [11] = system: velvetleaf (Abutilon theophrasti medicus); test: as above; settings: foliage treatment, plants grown two weeks, 1,000 g active ingredient per hectare, 14th day after application
# Method in brief: as §3
smiles,measurement,setting,value
O=C1CCCC(O)=C1C(=O)c1ccc(C(F)(F)F)n(-c2ccc([N+](=O)[O-])cc2)c1=O [I-88],"herbicidal effect, Scirpus juncoides Roxb.",[1],5 (90% or more of herbicidal effect and crop phytotoxicity)
same,"herbicidal effect, Echinochloa oryzicola Vasing",[2],5 (90% or more of herbicidal effect and crop phytotoxicity)
same,"herbicidal effect, Monochoria vaginalis (Burm. f.) C. Presl",[3],5 (90% or more of herbicidal effect and crop phytotoxicity)
same,"herbicidal effect (index), Barnyardgrass",[4],5 (90% or more of herbicidal effect and crop phytotoxicity)
same,"herbicidal effect (index), Green Foxtail",[5],5 (90% or more of herbicidal effect and crop phytotoxicity)
same,"herbicidal effect (index), Slender Amaranth",[6],5 (90% or more of herbicidal effect and crop phytotoxicity)
same,"herbicidal effect (index), Velvetleaf",[7],5 (90% or more of herbicidal effect and crop phytotoxicity)
same,"herbicidal effect (index), Barnyardgrass",[8],5 (90% or more of herbicidal effect and crop phytotoxicity)
same,"herbicidal effect (index), Green Foxtail",[9],5 (90% or more of herbicidal effect and crop phytotoxicity)
same,"herbicidal effect (index), Slender Amaranth",[10],5 (90% or more of herbicidal effect and crop phytotoxicity)
same,"herbicidal effect (index), Velvetleaf",[11],5 (90% or more of herbicidal effect and crop phytotoxicity)
Cc1ccc(-n2c(C(F)(F)F)ccc(C(=O)C3=C(O)CCCC3=O)c2=O)cc1 [I-89],"herbicidal effect, Scirpus juncoides Roxb.",[1],5 (90% or more of herbicidal effect and crop phytotoxicity)
same,"herbicidal effect, Echinochloa oryzicola Vasing",[2],5 (90% or more of herbicidal effect and crop phytotoxicity)
same,"herbicidal effect, Monochoria vaginalis (Burm. f.) C. Presl",[3],5 (90% or more of herbicidal effect and crop phytotoxicity)
same,"herbicidal effect (index), Barnyardgrass",[4],5 (90% or more of herbicidal effect and crop phytotoxicity)
same,"herbicidal effect (index), Green Foxtail",[5],5 (90% or more of herbicidal effect and crop phytotoxicity)
same,"herbicidal effect (index), Slender Amaranth",[6],5 (90% or more of herbicidal effect and crop phytotoxicity)
same,"herbicidal effect (index), Velvetleaf",[7],5 (90% or more of herbicidal effect and crop phytotoxicity)
same,"herbicidal effect (index), Barnyardgrass",[8],5 (90% or more of herbicidal effect and crop phytotoxicity)
same,"herbicidal effect (index), Green Foxtail",[9],5 (90% or more of herbicidal effect and crop phytotoxicity)
same,"herbicidal effect (index), Slender Amaranth",[10],5 (90% or more of herbicidal effect and crop phytotoxicity)
same,"herbicidal effect (index), Velvetleaf",[11],5 (90% or more of herbicidal effect and crop phytotoxicity)
O=C1CCCC(O)=C1C(=O)c1ccc(C(F)(F)F)n(-c2ccc(Br)cc2)c1=O [I-90],"herbicidal effect, Scirpus juncoides Roxb.",[1],5 (90% or more of herbicidal effect and crop phytotoxicity)
same,"herbicidal effect, Echinochloa oryzicola Vasing",[2],5 (90% or more of herbicidal effect and crop phytotoxicity)
same,"herbicidal effect, Monochoria vaginalis (Burm. f.) C. Presl",[3],5 (90% or more of herbicidal effect and crop phytotoxicity)
same,"herbicidal effect (index), Barnyardgrass",[4],5 (90% or more of herbicidal effect and crop phytotoxicity)
same,"herbicidal effect (index), Green Foxtail",[5],5 (90% or more of herbicidal effect and crop phytotoxicity)
same,"herbicidal effect (index), Slender Amaranth",[6],5 (90% or more of herbicidal effect and crop phytotoxicity)
same,"herbicidal effect (index), Velvetleaf",[7],5 (90% or more of herbicidal effect and crop phytotoxicity)
same,"herbicidal effect (index), Barnyardgrass",[8],5 (90% or more of herbicidal effect and crop phytotoxicity)
same,"herbicidal effect (index), Green Foxtail",[9],5 (90% or more of herbicidal effect and crop phytotoxicity)
same,"herbicidal effect (index), Slender Amaranth",[10],5 (90% or more of herbicidal effect and crop phytotoxicity)
same,"herbicidal effect (index), Velvetleaf",[11],5 (90% or more of herbicidal effect and crop phytotoxicity)
O=C1CCCC(O)=C1C(=O)c1ccc(C(F)(F)F)n(-c2ccccc2F)c1=O [I-91],"herbicidal effect, Scirpus juncoides Roxb.",[1],5 (90% or more of herbicidal effect and crop phytotoxicity)
same,"herbicidal effect, Echinochloa oryzicola Vasing",[2],5 (90% or more of herbicidal effect and crop phytotoxicity)
same,"herbicidal effect, Monochoria vaginalis (Burm. f.) C. Presl",[3],5 (90% or more of herbicidal effect and crop phytotoxicity)
same,"herbicidal effect (index), Barnyardgrass",[4],5 (90% or more of herbicidal effect and crop phytotoxicity)
same,"herbicidal effect (index), Green Foxtail",[5],5 (90% or more of herbicidal effect and crop phytotoxicity)
same,"herbicidal effect (index), Slender Amaranth",[6],5 (90% or more of herbicidal effect and crop phytotoxicity)
same,"herbicidal effect (index), Velvetleaf",[7],5 (90% or more of herbicidal effect and crop phytotoxicity)
same,"herbicidal effect (index), Barnyardgrass",[8],5 (90% or more of herbicidal effect and crop phytotoxicity)
same,"herbicidal effect (index), Green Foxtail",[9],4 (70 to less than 90% of herbicidal effect and crop phytotoxicity)
same,"herbicidal effect (index), Slender Amaranth",[10],5 (90% or more of herbicidal effect and crop phytotoxicity)
same,"herbicidal effect (index), Velvetleaf",[11],5 (90% or more of herbicidal effect and crop phytotoxicity)
O=C1CCCC(O)=C1C(=O)c1ccc(C(F)(F)F)n(-c2cccc(F)c2)c1=O [I-92],"herbicidal effect, Scirpus juncoides Roxb.",[1],5 (90% or more of herbicidal effect and crop phytotoxicity)
same,"herbicidal effect, Echinochloa oryzicola Vasing",[2],5 (90% or more of herbicidal effect and crop phytotoxicity)
same,"herbicidal effect, Monochoria vaginalis (Burm. f.) C. Presl",[3],5 (90% or more of herbicidal effect and crop phytotoxicity)
same,"herbicidal effect (index), Barnyardgrass",[4],5 (90% or more of herbicidal effect and crop phytotoxicity)
same,"herbicidal effect (index), Green Foxtail",[5],5 (90% or more of herbicidal effect and crop phytotoxicity)
same,"herbicidal effect (index), Slender Amaranth",[6],5 (90% or more of herbicidal effect and crop phytotoxicity)
same,"herbicidal effect (index), Velvetleaf",[7],5 (90% or more of herbicidal effect and crop phytotoxicity)
same,"herbicidal effect (index), Barnyardgrass",[8],5 (90% or more of herbicidal effect and crop phytotoxicity)
same,"herbicidal effect (index), Green Foxtail",[9],5 (90% or more of herbicidal effect and crop phytotoxicity)
same,"herbicidal effect (index), Slender Amaranth",[10],5 (90% or more of herbicidal effect and crop phytotoxicity)
same,"herbicidal effect (index), Velvetleaf",[11],5 (90% or more of herbicidal effect and crop phytotoxicity)
O=C1CCCC(O)=C1C(=O)c1ccc(C(F)(F)F)n(-c2ccc(F)cc2)c1=O [I-93],"herbicidal effect, Scirpus juncoides Roxb.",[1],5 (90% or more of herbicidal effect and crop phytotoxicity)
same,"herbicidal effect, Echinochloa oryzicola Vasing",[2],5 (90% or more of herbicidal effect and crop phytotoxicity)
same,"herbicidal effect, Monochoria vaginalis (Burm. f.) C. Presl",[3],5 (90% or more of herbicidal effect and crop phytotoxicity)
same,"herbicidal effect (index), Barnyardgrass",[4],5 (90% or more of herbicidal effect and crop phytotoxicity)
same,"herbicidal effect (index), Green Foxtail",[5],5 (90% or more of herbicidal effect and crop phytotoxicity)
same,"herbicidal effect (index), Slender Amaranth",[6],5 (90% or more of herbicidal effect and crop phytotoxicity)
same,"herbicidal effect (index), Velvetleaf",[7],5 (90% or more of herbicidal effect and crop phytotoxicity)
same,"herbicidal effect (index), Barnyardgrass",[8],5 (90% or more of herbicidal effect and crop phytotoxicity)
same,"herbicidal effect (index), Green Foxtail",[9],5 (90% or more of herbicidal effect and crop phytotoxicity)
same,"herbicidal effect (index), Slender Amaranth",[10],5 (90% or more of herbicidal effect and crop phytotoxicity)
same,"herbicidal effect (index), Velvetleaf",[11],5 (90% or more of herbicidal effect and crop phytotoxicity)
N#Cc1cccc(-n2c(C(F)(F)F)ccc(C(=O)C3=C(O)CCCC3=O)c2=O)c1 [I-94],"herbicidal effect, Scirpus juncoides Roxb.",[1],5 (90% or more of herbicidal effect and crop phytotoxicity)
same,"herbicidal effect, Echinochloa oryzicola Vasing",[2],5 (90% or more of herbicidal effect and crop phytotoxicity)
same,"herbicidal effect, Monochoria vaginalis (Burm. f.) C. Presl",[3],5 (90% or more of herbicidal effect and crop phytotoxicity)
same,"herbicidal effect (index), Barnyardgrass",[4],5 (90% or more of herbicidal effect and crop phytotoxicity)
same,"herbicidal effect (index), Green Foxtail",[5],5 (90% or more of herbicidal effect and crop phytotoxicity)
same,"herbicidal effect (index), Slender Amaranth",[6],5 (90% or more of herbicidal effect and crop phytotoxicity)
same,"herbicidal effect (index), Velvetleaf",[7],5 (90% or more of herbicidal effect and crop phytotoxicity)
same,"herbicidal effect (index), Barnyardgrass",[8],5 (90% or more of herbicidal effect and crop phytotoxicity)
same,"herbicidal effect (index), Green Foxtail",[9],5 (90% or more of herbicidal effect and crop phytotoxicity)
same,"herbicidal effect (index), Slender Amaranth",[10],5 (90% or more of herbicidal effect and crop phytotoxicity)
same,"herbicidal effect (index), Velvetleaf",[11],5 (90% or more of herbicidal effect and crop phytotoxicity)
N#Cc1ccc(-n2c(C(F)(F)F)ccc(C(=O)C3=C(O)CCCC3=O)c2=O)cc1 [I-95],"herbicidal effect, Scirpus juncoides Roxb.",[1],5 (90% or more of herbicidal effect and crop phytotoxicity)
same,"herbicidal effect, Echinochloa oryzicola Vasing",[2],5 (90% or more of herbicidal effect and crop phytotoxicity)
same,"herbicidal effect, Monochoria vaginalis (Burm. f.) C. Presl",[3],5 (90% or more of herbicidal effect and crop phytotoxicity)
same,"herbicidal effect (index), Barnyardgrass",[4],5 (90% or more of herbicidal effect and crop phytotoxicity)
same,"herbicidal effect (index), Green Foxtail",[5],5 (90% or more of herbicidal effect and crop phytotoxicity)
same,"herbicidal effect (index), Slender Amaranth",[6],5 (90% or more of herbicidal effect and crop phytotoxicity)
same,"herbicidal effect (index), Velvetleaf",[7],5 (90% or more of herbicidal effect and crop phytotoxicity)
same,"herbicidal effect (index), Barnyardgrass",[8],5 (90% or more of herbicidal effect and crop phytotoxicity)
same,"herbicidal effect (index), Green Foxtail",[9],5 (90% or more of herbicidal effect and crop phytotoxicity)
same,"herbicidal effect (index), Slender Amaranth",[10],5 (90% or more of herbicidal effect and crop phytotoxicity)
same,"herbicidal effect (index), Velvetleaf",[11],5 (90% or more of herbicidal effect and crop phytotoxicity)
